These results are taken from BindingDB's records for patent US20240317745 (Humanwell Pharmaceutical US, 2024).

For the assay, the target named is Sigma non-opioid intracellular receptor 1 (Cavia porcellus, UniProt Q60492). In words: Binding Affinity Assay. The procedure: An appropriate amount of homogenization buffer was added to the prepared membrane, and was dispersed into a suspension using a homogenizer, protein concentration was measured to be 4 mg/ml. 100 micrograms of protein were added to each well of a 96-well plate, with a volume of 90 μl. […] [3H]-(+)-pentazocine (Perkin-Elmer, Cat #NET1056250UC) was added to each well (final concentration of 10 nM). The 96-well plate was incubated in a constant temperature water bath (25° C., 180 minutes). […] After washing, the samples were dried in a 37° C. oven.
Sequence of Sigma non-opioid intracellular receptor 1 (Q60492 whole entry): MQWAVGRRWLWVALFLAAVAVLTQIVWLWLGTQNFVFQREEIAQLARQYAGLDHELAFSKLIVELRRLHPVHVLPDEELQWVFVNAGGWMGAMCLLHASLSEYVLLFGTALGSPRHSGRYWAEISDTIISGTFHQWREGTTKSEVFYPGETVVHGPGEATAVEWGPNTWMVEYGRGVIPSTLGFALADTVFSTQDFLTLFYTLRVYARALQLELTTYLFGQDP
For the compound `Fc1ccc(-c2cc(COCCN3CCOCC3)on2)cc1F` [US20240317745, Compound 1], the affinity, expressed as Ki, was 80.3 nM.
As for `OC1CCN(Cc2cc(-c3ccc(F)c(F)c3)no2)CC1` [US20240317745, Compound 37], the figure is 308 nM.
Then `OC1CCN(CCOCc2cc(-c3ccc(Cl)c(Cl)c3)no2)CC1` [US20240317745, Compound 65], with 39.6 nM; and `Clc1ccc(-c2noc(COCCN3CCOCC3)c2Br)cc1Cl` [US20240317745, Compound 74], with 84.4 nM.
